Reference: patent US20260207554A1 (priority 2022, published 2026)
Where a name gives a salt, the structure may show the parent alone.

Tested on: adult nondependent recreational opioid users
Conditions: in vivo

Compound | Skin and subcutaneous tissue disorders, subjects with TEAE n (%) (human) | Abdominal pain upper, subjects with TEAE n (%) (human, po) | Dizziness, subjects with TEAE n (%) (human, po) | Gastrointestinal disorders, subjects with TEAE n (%) (human, po) | Generalised tonic-clonic seizure, subjects with TEAE n (%) (human, po) | Headache, subjects with TEAE n (%) (human, po) | Hiccups, subjects with TEAE n (%) (human, po) | Nervous system disorders, subjects with TEAE n (%) (human, po) | Number of subjects with at least one TEAE, n (%) (human, po) | Somnolence, subjects with TEAE n (%) (human, po) | Tension headache, subjects with TEAE n (%) (human, po) | Toothache, subjects with TEAE n (%) (human, po) | Tremor, subjects with TEAE n (%) (human, po) | Uvulitis, subjects with TEAE n (%) (human, po) | Vertigo, subjects with TEAE n (%) (human, po) | Vomiting, subjects with TEAE n (%) (human, po) | feeling hot, incidence of subjects (human, po) | hot flush, incidence of subjects (human, po) | subjects who experienced seizures (po)
COc1ccc2c3c1O[C@H]1C(=O)CC[C@@]4(O)[C@@H](C2)N(C)CC[C@]314.Cl [Oxycodone HCl] | (29.5%) | 0% | (9.1%) | (27.3%) | 0% | (4.5%) | (6.8%) | (22.7%) | (56.8%) | (9.1%) | 0% | 0% | 0% | 0% | 0% | (15.9%) | 2.3% | 11.4% | 
COc1cccc(C2(O)CCCCC2CN(C)C)c1 (centres unmarked) [Tramadol HCl] | (25.6%) | 0% | (2.6%) | (35.9%) | (5.1%) | (7.7%) | (2.6%) |  | (66.7%) | (7.7%) | 0% | 0% | 0% | (2.6%) | (2.6%) |  | 2.5% | 12.8% | two subjects experienced seizures
